Experimental data taken from US20240287070A1, “FUSED HETEROCYCLIC DERIVATIVES” (Janssen Sciences Ireland Unlimited Company, priority 2021, published 2024).

Tests used:
[1] = tested on: HBV (HepG2.117 cell line, inducibly HBV producing); assay: Anti-HBV activity, intracellular HBV DNA by real-time PCR in HepG2.117 cell line; assay type: cell-based, hepatitis B virus; details: HepG2.117 cells, 3 days of treatment
Summary of the method: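 HepG2.117 cells replicate HBV under Tet-off control, without doxycycline. After induction of replication, cells were treated with serially diluted compound for 3 days, and intracellular HBV DNA was then quantified by real-time PCR with an HBV-specific primer set and probe.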

[2] = tested on: HepG2 or HepG2.117 cells; assay: Cytotoxicity, ATPlite Luminescence Assay; assay type: cell-based, human; details: 3-days incubation unless marked with *
Summary of the method: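 Cells were exposed to compounds for 3 or 4 days, after which viability was determined by ATP-based luminescence (ATPlite).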

[3] = Human liver microsome stability; assay type: in vitro ADME; details: 1 μM compound, NADPH 1 mM, 37° C., 0-60 min; for HLM Metabolism t1/2: pooled human liver microsomes 0.5 mg/mL
Summary of the method: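 Single incubations with human liver microsomes started with 1 mM NADPH; samples taken at 0, 5, 10, 20, 40 and 60 min, quenched in acetonitrile (1:3). Cassette LC-MS analysis with internal standard; t½ derived from slope of ln peak-area ratio versus time (k = −gradient).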

Structure (SMILES)	EC50 [1] [µM]	CC50 [2] [µM]	HLM Metabolism t1/2 [3] [h]	half-life at 1 μM ([3]; human, pooled human liver microsomes, pH 7.4, pooled human liver microsomes 0.5 mg/mL, read-out: HLM Metabolism t1/2) [h]
CC(c1ccc(=O)n(C)n1)N1C[C@@H](C)n2nc3c(c2C1=O)CN(C(=O)c1ccc(Cl)c(Cl)c1)[C@H](C)C3 (single isomer, unassigned) [Compound 55B, (3R,7R)-2-(3,4-dichlorobenzoyl)-3,7-dimethyl-9-((S*)-1-(1-methyl-6-oxo-1,6-dihydropyridazin-3-yl)ethyl)-1,2,3,4,8,9-hexahydropyrido[4′,3′:3,4]pyrazolo[1,5-a]pyrazin-10(7H)-one]	0.06	> 50	>3	
CC(C)Oc1cc(C(C)N2C[C@@H](C)n3nc4c(c3C2=O)CN(C(=O)c2ccc(Cl)c(C(F)(F)F)c2)[C@H](C)C4)ccn1 (single isomer, unassigned) [Compound 48B, (3R,7R)-2-(4-chloro-3-(trifluoromethyl)benzoyl)-9-((S*)-1-(2-isopropoxypyridin-4-yl)ethyl)-3,7-dimethyl-1,2,3,4,8,9-hexahydropyrido[4′,3′:3,4]pyrazolo[1,5-a]pyrazin-10(7H)-one]	0.028	11.5	1.66	
Cc1nnnn1-c1ccc(C(C)N2C[C@@H](C)n3nc4c(c3C2=O)CN(C(=O)c2ccc(Cl)c(Cl)c2)[C@H](C)C4)cn1 (single isomer, unassigned) [Compound 27B, (3R,7R)-2-(3,4-dichlorobenzoyl)-3,7-dimethyl-9-((S*)-1-(6-(5-methyl-1H-tetrazol-1-yl)pyridin-3-yl)ethyl)-1,2,3,4,8,9-hexahydropyrido[4′,3′:3,4]pyrazolo[1,5-a]pyrazin-10(7H)-one]	0.018	> 50	1.39	
CC(c1cnc(C(C)(C)O)cn1)N1C[C@@H](C)n2nc3c(c2C1=O)CN(C(=O)c1ccc(Cl)c(C(F)(F)F)c1)[C@H](C)C3 (single isomer, unassigned) [Compound 41B, (3R,7R)-2-(4-chloro-3-(trifluoromethyl)benzoyl)-9-((S*)-1-(5-(2-hydroxypropan-2-yl)pyrazin-2-yl)ethyl)-3,7-dimethyl-1,2,3,4,8,9-hexahydropyrido[4′,3′:3,4]pyrazolo[1,5-a]pyrazin-10(7H)-one]	0.014	> 50	1.65	
CC(c1ccc(C(C)(C)O)cc1)N1C[C@@H](C)n2nc3c(c2C1=O)CN(C(=O)c1ccc(Cl)c(Cl)c1)[C@H](C)C3 (single isomer, unassigned) [Compound 8B, (3R,7R)-2-(3,4-dichlorobenzoyl)-9-((S*)-1-(4-(2-hydroxypropan-2-yl)phenyl)ethyl)-3,7-dimethyl-1,2,3,4,8,9-hexahydropyrido[4′,3′:3,4]pyrazolo[1,5-a]pyrazin-10(7H)-one]	0.009	18.7	>3	
C[C@@H]1Cc2nn3c(c2CN1C(=O)c1ccc(Cl)c(C(F)(F)F)c1)C(=O)N([C@@H](C)c1ccc([S@]2(=O)=NCCC2)nc1)C[C@H]3C (relative stereo) [Compound 30D, (3R,7R)-2-(4-chloro-3-(trifluoromethyl)benzoyl)-3,7-dimethyl-9-((S*)-1-(6-((S*)-1-oxido-4,5-dihydro-3H-116-isothiazol-1-yl)pyridin-3-yl)ethyl)-1,2,3,4,8,9-hexahydropyrido[4′,3′:3,4]pyrazolo[1,5-a]pyrazin-10(7H)-one]	0.047	> 50	0.255	
CC(c1ccc(N2CCCC2=O)cc1)N1C[C@@H](C)n2nc3c(c2C1=O)CN(C(=O)c1ccc(Cl)c(C#N)c1)[C@H](C)C3 (single isomer, unassigned) [Compound 9B, 2-Chloro-5-((3R,7R)-3,7-dimethyl-10-oxo-9-((S*)-1-(4-(2-oxopyrrolidin-1-yl)phenyl)ethyl)-1,2,3,4,7,8,9,10-octahydropyrido[4′,3′:3,4]pyrazolo[1,5-a]pyrazine-2-carbonyl)benzonitrile]	0.02	> 50	1.83	
CC(c1ccn(CC(C)(C)O)c(=O)c1)N1C[C@@H](C)n2nc3c(c2C1=O)CN(C(=O)c1ccc(Cl)c(C(F)(F)F)c1)[C@H](C)C3 (single isomer, unassigned) [Compound 64B, (3R,7R)-2-(4-chloro-3-(trifluoromethyl)benzoyl)-9-((S*)-1-(1-(2-hydroxy-2-methylpropyl)-2-oxo-1,2-dihydropyridin-4-yl)ethyl)-3,7-dimethyl-1,2,3,4,8,9-hexahydropyrido[4′,3′:3,4]pyrazolo[1,5-a]pyrazin-10(7H)-one]	0.085	> 50	>3	
C[C@@H]1Cc2nn3c(c2CN1C(=O)c1ccc(Cl)c(C(F)(F)F)c1)C(=O)N([C@H](C)c1ccc([S@@](C)(=O)=NC#N)cc1)C[C@H]3C (relative stereo) [Compound 20A, N—((R*)-(4-((R*)-1-((3R,7R)-2-(4-chloro-3-(trifluoromethyl)benzoyl)-3,7-dimethyl-10-oxo-1,3,4,7,8,10-hexahydropyrido[4′,3′:3,4]pyrazolo[1,5-a]pyrazin-9(2H)-yl)ethyl)phenyl)(methyl)(oxo)-16-sulfaneylidene)cyanamide]	0.041	> 50	>3	
CC(c1ccn(CC(F)(F)F)n1)N1C[C@@H](C)n2nc3c(c2C1=O)CN(C(=O)c1ccc(Cl)c(C#N)c1)[C@H](C)C3 (single isomer, unassigned) [Compound 42A, 2-chloro-5-((3R,7R)-3,7-Dimethyl-10-oxo-9-((R*)-1-(1-(2,2,2-trifluoroethyl)-1H-pyrazol-3-yl)ethyl)-1,2,3,4,7,8,9,10-octahydropyrido[4′,3′:3,4]pyrazolo[1,5-a]pyrazine-2-carbonyl)benzonitrile]	0.12	> 50	>3	
Cc1nnc(C(C)N2C[C@@H](C)n3nc4c(c3C2=O)CN(C(=O)c2ccc(Cl)c(Cl)c2)[C@H](C)C4)o1 (single isomer, unassigned) [Compound 43B, (3R,7R)-2-(3,4-dichlorobenzoyl)-3,7-dimethyl-9-((S*)-1-(5-methyl-1,3,4-oxadiazol-2-yl)ethyl)-1,2,3,4,8,9-hexahydropyrido[4′,3′:3,4]pyrazolo[1,5-a]pyrazin-10(7H)-one]	0.065	> 50	>3	
C[C@@H]1Cc2nn3c(c2CN1C(=O)c1ccc(Cl)c(C(F)(F)F)c1)C(=O)N([C@H](C)c1ccc([S@]2(=O)=NCCC2)nc1)C[C@H]3C (relative stereo) [Compound 30C, (3R,7R)-2-(4-chloro-3-(trifluoromethyl)benzoyl)-3,7-dimethyl-9-((R*)-1-(6-((S*)-1-oxido-4,5-dihydro-3H-116-isothiazol-1-yl)pyridin-3-yl)ethyl)-1,2,3,4,8,9-hexahydropyrido[4′,3′:3,4]pyrazolo[1,5-a]pyrazin-10(7H)-one]	0.31	> 50	0.685	
CC(c1cc(F)c(=O)n(C)c1)N1C[C@@H](C)n2nc3c(c2C1=O)CN(C(=O)c1ccc(Cl)c(Cl)c1)[C@H](C)C3 (relative stereo) [Compound 45A, (3R,7R)-2-(3,4-dichlorobenzoyl)-9-((R*)-1-(5-fluoro-1-methyl-6-oxo-,6-dihydropyridin-3-yl)ethyl)-3,7-dimethyl-1,2,3,4,8,9-hexahydropyrido[4′,3′:3,4]pyrazolo [1,5-a]pyrazin-10(7H)-one]	0.57	> 50	>3	
CC(c1ccc(C(C)(C)O)nc1)N1C[C@@H](C)n2nc3c(c2C1=O)CN(C(=O)c1cc(F)c(Cl)c(F)c1)[C@H](C)C3 (single isomer, unassigned) [Compound 60B, (3R,7R)-2-(4-chloro-3,5-difluorobenzoyl)-9-((S*)-1-(6-(2-hydroxypropan-2-yl)pyridin-3-yl)ethyl)-3,7-dimethyl-1,2,3,4,8,9-hexahydropyrido[4′,3′:3,4]pyrazolo[1,5-a]pyrazin-10(7H)-one]	0.052	> 50	>3	
CC(c1cnc(C(F)(F)F)cn1)N1C[C@@H](C)n2nc3c(c2C1=O)CN(C(=O)c1ccc(Cl)c(Cl)c1)[C@H](C)C3 (single isomer, unassigned) [Compound 7A, (3R,7R)-2-(3,4-dichlorobenzoyl)-3,7-dimethyl-9-((R*)-1-(5-(trifluoromethyl)pyrazin-2-yl)ethyl)-1,2,3,4,8,9-hexahydropyrido[4′,3′:3,4]pyrazolo[1,5-a]pyrazin-10(7H)-one]	0.52	44.8		> 3
CC(c1ccc(C(C)(C)O)nc1)N1C[C@@H](C)n2nc3c(c2C1=O)CN(C(=O)c1ccc(Cl)c(F)c1F)[C@H](C)C3 (single isomer, unassigned) [Compound 61B, (3R,7R)-2-(4-chloro-2,3-difluorobenzoyl)-9-((S*)-1-(6-(2-hydroxypropan-2-yl)pyridin-3-yl)ethyl)-3,7-dimethyl-1,2,3,4,8,9-hexahydropyrido[4′,3′:3,4]pyrazolo[1,5-a]pyrazin-10(7H)-one]	0.3	> 50	2.25	
